The text below walks through data of ChEMBL document CHEMBL1201862, “PubChem BioAssay data set” (2004).

Among the test systems are A498; KM-20L2; 786-0; NCI-H522; HOP-62; U-251; SK-MEL-28; A549; UACC-257; SF-539; OVCAR-8; IGROV-1; NCI-H460; HT-29; KM12; HCT-15; HCT-116; SR; MDA-MB-435; MDA-N.
Holding throughout (experiment): NCI anticancer screen, dose series, 48 h

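Step 1: Grow cells in 96-well plates. Step 2: Expose to compound for 48 hours at 5 concentrations. Step 3: Interpolate endpoints linearly; if unreached, use highest concentration. GI50 marks 50% less growth.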 Active and inactive are the calls of the source. No stated cut-off is given here; in the data, active = GI50 up to about 1.1 µM and inactive = higher.

With `O=C1NC(c2ccccc2)(c2ccccc2)C(=O)N1CCCCCCN1C(=O)NC(c2ccccc2)(c2ccccc2)C1=O`, the GI50 in the assay with A498 was 25.5 µM (inactive); in the assay with KM-20L2 it was > 100 µM (inactive); with 786-0, 12.6 µM (inactive); in the assay with NCI-H522, 11.9 µM (inactive); with HOP-62 it was 24.8 µM (inactive); with U-251, 27.7 µM (inactive). Moreover, the GI50 in the assay with SK-MEL-28 was 11 µM (inactive); in the assay on A549, 21.2 µM (inactive); in the assay on UACC-257 it was 26.2 µM (inactive); in the assay on SF-539, 18.6 µM (inactive); with OVCAR-8, 22.3 µM (inactive); in the assay on IGROV-1, 74 µM (inactive). Besides, the GI50 was > 100 µM (inactive) in the assay with NCI-H460, 45.8 µM (inactive) in the assay on HT-29, > 100 µM (inactive) in the assay on KM12 and greater than 100 µM with HCT-15.
Take `COC(=O)/C=C1/CCC2[C@@H](C(=O)CC3[C@]2(C)CCC[C@@]3(C)C(=O)OC)C1C` (some centres not stated): the GI50 is 17.7 µM (inactive) in the assay with A498; 13.1 µM (inactive) with KM-20L2; 14.9 µM (inactive) in the assay on 786-0; 5.07 µM (inactive) in the assay with NCI-H522; 21.9 µM (inactive) with HOP-62; 15.4 µM (inactive) in the assay with U-251. The GI50 in the assay with SK-MEL-28 was 13.3 µM (inactive); in the assay with A549 it was 15.6 µM (inactive); in the assay with UACC-257, 10.4 µM (inactive); with HCT-116, 5.79 µM (inactive); with SF-539, 14.9 µM (inactive); in the assay on OVCAR-8, 12.3 µM (inactive). For the same molecule, the GI50 is 20.2 µM (inactive) in the assay on IGROV-1; 14.2 µM (inactive) in the assay on NCI-H460; 5.64 µM (inactive) in the assay with HT-29; 12.6 µM (inactive) with KM12; 14 µM in the assay with HCT-15.
For `O=c1cc(-c2ccccc2)oc2cc(O)cc(O)c12` [CHRYSIN], the GI50 with KM-20L2 is 23.9 µM (inactive); in the assay with 786-0, 23.6 µM (inactive); in the assay on SR, 23 µM (inactive); in the assay on NCI-H522, 15.9 µM (inactive); with HOP-62, 31.4 µM (inactive); in the assay on U-251, 21.7 µM (inactive). Further, the GI50 in the assay with SK-MEL-28 is 16.8 µM (inactive); with A549, 27 µM (inactive); with UACC-257 it was 21.1 µM (inactive); with HCT-116, 15.2 µM (inactive); in the assay on SF-539, 15.1 µM (inactive); in the assay on IGROV-1, > 10 µM (inactive). The GI50 with NCI-H460 is 14.2 µM (inactive); with HT-29, 23.4 µM (inactive); in the assay on KM12, 15.5 µM (inactive); in the assay with HCT-15 it was 20.4 µM.
Turning to `COc1ccc(-c2cc(=O)c3c(O)cc(O)cc3o2)c(OC)c1OC`, the GI50 was 30.1 µM (inactive) in the assay on KM-20L2; 80 µM (inactive) in the assay on 786-0; 52.1 µM (inactive) in the assay on NCI-H522; > 100 µM (inactive) in the assay on HOP-62; 94.2 µM (inactive) in the assay on SK-MEL-28; 59.3 µM (inactive) in the assay on A549. The GI50 in the assay on UACC-257 is > 100 µM (inactive); in the assay on SF-539, > 100 µM (inactive); in the assay with IGROV-1, > 100 µM (inactive); with HT-29, 80 µM (inactive); in the assay with KM12, 53.1 µM (inactive).
As to `CCCc1nn(C)c(CCC(=O)N(Cc2ccccc2)Cc2ccccc2)c1CC`, the GI50 in the assay on A498, in the assay on KM-20L2, with 786-0, with NCI-H522, in the assay on HOP-62 and in the assay with U-251 was > 100 µM (inactive) in each case. The GI50 in the assay on SK-MEL-28, in the assay on A549, with UACC-257, in the assay with HCT-116, with SF-539 and in the assay on OVCAR-8 was > 100 µM (inactive) throughout. Further, the GI50 is > 100 µM (inactive) in the assay on IGROV-1; > 100 µM (inactive) with NCI-H460; > 100 µM (inactive) in the assay with HT-29; > 100 µM (inactive) with KM12; greater than 100 µM in the assay on HCT-15.
`O=C(N/C(=C\c1cccc([N+](=O)[O-])c1)c1nc2cc([N+](=O)[O-])ccc2[nH]1)c1ccccc1`: the GI50 with KM-20L2 is 23.1 µM (inactive); in the assay with 786-0, 36.1 µM (inactive); with SR, 17.1 µM (inactive); with NCI-H522 it was 18.3 µM (inactive); in the assay on U-251 it was 40.7 µM (inactive); with SK-MEL-28 it was 36.9 µM (inactive). The GI50 with A549 was 26.8 µM (inactive); with SF-539, 29.4 µM (inactive); in the assay on OVCAR-8, 31 µM (inactive); in the assay on IGROV-1, 21.4 µM (inactive); with HT-29, 44.4 µM (inactive); in the assay on KM12 it was 29.6 µM (inactive). For the same molecule, the GI50 in the assay with HCT-15 was 22.1 µM.
`CC(=O)OC1COC(n2c(=S)n(-c3ccccc3)c(=O)c3ccccc32)C(OC(C)=O)C1OC(C)=O` (configuration not stated): the GI50 was > 100 µM (inactive) in the assay on A498; 4.29 µM (inactive) with KM-20L2; 78.9 µM (inactive) in the assay with 786-0; 35 µM (inactive) in the assay on NCI-H522; > 100 µM (inactive) with HOP-62; 78.5 µM (inactive) in the assay on U-251. Also, the GI50 was > 100 µM (inactive) in the assay on SK-MEL-28; 39.9 µM (inactive) with A549; > 100 µM (inactive) with UACC-257; 47.9 µM (inactive) in the assay on HCT-116; > 100 µM (inactive) in the assay on SF-539; 72.8 µM (inactive) in the assay with OVCAR-8. Besides, the GI50 in the assay with IGROV-1 is 67.3 µM (inactive); in the assay with NCI-H460 it was 66.1 µM (inactive); with HT-29, 85.3 µM (inactive); in the assay on KM12 it was 29.2 µM (inactive); in the assay on HCT-15, 6 µM.
Take `CC1(C)N=C(N)N=C(N)N1CCCCc1ccccc1`: the GI50 is 2.08 µM (inactive) in the assay on A498; < 0.0305 µM (active) with 786-0; 0.155 µM (active) with MDA-MB-435; < 0.0334 µM (active) in the assay on SR; 0.708 µM (active) in the assay on NCI-H522; 1.18 µM (inactive) in the assay with HOP-62. The GI50 is 0.209 µM (active) in the assay with U-251; 8.59 µM (inactive) in the assay with SK-MEL-28; 0.113 µM (active) in the assay with A549; 1.63 µM (inactive) in the assay with UACC-257; 0.0364 µM (active) in the assay with HCT-116; 0.34 µM (active) with SF-539. Further, the GI50 is 0.251 µM (active) in the assay with OVCAR-8; 0.232 µM (active) in the assay with IGROV-1; 0.151 µM (active) in the assay with NCI-H460; 0.124 µM (active) with HT-29; 0.046 µM (active) with MDA-N; 0.689 µM (active) with KM12. This molecule also gave a GI50 in the assay on HCT-15 of 2.92 µM.
Consider `N#Cc1nc(Sc2cnsn2)c(Sc2cnsn2)nc1C#N`, for which the GI50 is 21.8 µM (inactive) with A498; 6.78 µM (inactive) in the assay on 786-0; 11.5 µM (inactive) with MDA-MB-435; 8.91 µM (inactive) with SR; 3.93 µM (inactive) with NCI-H522; 18.7 µM (inactive) in the assay with HOP-62. Moreover, the GI50 in the assay on U-251 is 29.4 µM (inactive); in the assay with SK-MEL-28, 22.6 µM (inactive); in the assay on A549 it was 28.6 µM (inactive); in the assay on UACC-257 it was 13.6 µM (inactive); in the assay with HCT-116 it was 6.65 µM (inactive); in the assay on SF-539, 19.4 µM (inactive). The GI50 in the assay with OVCAR-8 is 24.5 µM (inactive); with IGROV-1, 18.5 µM (inactive); in the assay with NCI-H460 it was 24.6 µM (inactive); in the assay with HT-29 it was 20.6 µM (inactive); in the assay with MDA-N, 20.4 µM (inactive); with KM12, 20.7 µM (inactive). Moreover, the GI50 with HCT-15 was 6.68 µM.
As for `CC(=O)OCC12C(OC(C)=O)C[C@@H](C)C3(CC(c4ccoc4)OC3=O)C1CCC(O)C21CO1` (some centres not stated), the GI50 with A498, in the assay on 786-0, with MDA-MB-435, in the assay with SR, with NCI-H522 and in the assay with HOP-62 was > 100 µM (inactive) throughout. Moreover, the GI50 with U-251, in the assay on SK-MEL-28, in the assay with A549, with UACC-257, in the assay with HCT-116 and in the assay on SF-539 was > 100 µM (inactive) each time. Also, the GI50 is > 100 µM (inactive) with OVCAR-8; > 100 µM (inactive) in the assay with IGROV-1; > 10 µM (inactive) in the assay with NCI-H460; > 100 µM (inactive) with HT-29; > 100 µM (inactive) in the assay with MDA-N; > 100 µM (inactive) in the assay with KM12. Moreover, the GI50 with HCT-15 was greater than 100 µM.
Take `COC12OC3CC4(C)C(=CC3OC(OC(C)C1O)C2O)CCC1C4CCC2(C)C(c3ccc(=O)oc3)CCC12O` (configuration not stated): the GI50 in the assay on A498 is 0.00309 µM (active); in the assay with 786-0 it was 0.00134 µM (active); with MDA-MB-435, 0.00216 µM (active); in the assay on SR it was 0.0014 µM (active); in the assay with NCI-H522, < 0.001 µM (active); with HOP-62 it was 0.00137 µM (active). Moreover, the GI50 with U-251 was 0.00142 µM (active); in the assay on SK-MEL-28 it was 0.00385 µM (active); in the assay on A549, 0.00119 µM (active); in the assay with UACC-257, 0.00283 µM (active); in the assay with HCT-116, 0.00136 µM (active); in the assay on SF-539, 0.00126 µM (active). Also, the GI50 in the assay on OVCAR-8 was 0.00144 µM (active); with IGROV-1, 0.00171 µM (active); in the assay on NCI-H460, 0.0014 µM (active); with HT-29, 0.00139 µM (active); with MDA-N, 0.00215 µM (active); in the assay on KM12 it was 0.00247 µM (active). This molecule also gave a GI50 in the assay with HCT-15 of 0.00216 µM.
Regarding `CCCCCC/C=C\CCCCCCCCCc1cccc(O)c1C(=O)O` [GINKGOLIC ACID 17:1], the GI50 in the assay on A498 was > 100 µM (inactive); with 786-0, > 100 µM (inactive); in the assay with MDA-MB-435, > 100 µM (inactive); in the assay on SR, 45.4 µM (inactive); in the assay with NCI-H522, > 100 µM (inactive); in the assay with HOP-62, > 100 µM (inactive). In addition, the GI50 in the assay on U-251, in the assay on SK-MEL-28, with A549, in the assay with UACC-257, in the assay on HCT-116 and in the assay with SF-539 was > 100 µM (inactive) each time. For the same molecule, the GI50 in the assay with OVCAR-8, in the assay with IGROV-1, in the assay on NCI-H460, in the assay on HT-29, in the assay with MDA-N and with KM12 was > 100 µM (inactive) throughout. In the assay on HCT-15, this molecule showed a GI50 of 32.6 µM.
